This experiment deals with T1, human CTPS1 (Homo sapiens, UniProt P17812).
T1 sequence (P17812 1-591): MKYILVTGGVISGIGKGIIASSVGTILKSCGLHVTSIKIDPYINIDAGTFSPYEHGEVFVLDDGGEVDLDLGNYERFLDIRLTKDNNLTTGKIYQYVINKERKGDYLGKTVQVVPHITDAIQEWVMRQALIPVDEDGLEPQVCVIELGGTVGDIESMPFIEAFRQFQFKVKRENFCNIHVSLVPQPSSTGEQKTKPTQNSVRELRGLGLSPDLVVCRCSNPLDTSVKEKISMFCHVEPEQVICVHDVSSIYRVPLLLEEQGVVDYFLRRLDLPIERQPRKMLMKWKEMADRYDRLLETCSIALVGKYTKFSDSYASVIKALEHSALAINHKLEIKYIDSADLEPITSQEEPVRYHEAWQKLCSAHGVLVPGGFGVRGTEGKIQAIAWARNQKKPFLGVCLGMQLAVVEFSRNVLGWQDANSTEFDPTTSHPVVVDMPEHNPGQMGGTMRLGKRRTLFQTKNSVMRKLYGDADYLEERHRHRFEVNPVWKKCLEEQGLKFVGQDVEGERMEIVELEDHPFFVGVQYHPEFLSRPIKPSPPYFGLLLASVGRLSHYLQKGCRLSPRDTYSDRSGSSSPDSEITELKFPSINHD
In words: ADP-Glo assay, human CTPS1 enzyme inhibition. The format is biochemical. The settings on record: wild-type human CTPS1, 25 nM enzyme; ADP-Glo; read-out: ADP-Glo_WT_hCTPS1—25 nM_IC50 (IC50). The procedure, abridged:
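Full-length tagged human CTPS1 (25 nM) pre-incubated 10 min at 25° C with compound, then 10 min with ATP (120 μM) and UTP (160 μM); reaction started with L-glutamine (100 μM) and GTP (60 μM), 1% DMSO, in HEPES pH 7.4, 10 mM Mg2+, 5 mM KCl, 2 mM DTT. Run within linear phase at 25° C; ADP measured by ADP-Glo luminescence.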
A general note: ADP-Glo turns the ADP formed in a reaction into a luminescent signal.

SMILES strings stand for the structures. “And” between values parts separate entries of the source, which are not always exact repeats. Equal entries are not always repeated.

Our source for the IC50 values is patent publication US20250270200A1, “CTPS1 INHIBITORS AND USES THEREOF” (Nimbus Clotho, Inc., priority 2022, published 2025).

One may read the IC50 as the point on the concentration scale where inhibition reaches its midpoint. As to `O=C(N[C@]1(c2cc(NS(=O)(=O)C3CC3)ccn2)C[C@@H](O)C1)c1ncc(-c2cnn3ccc(Cl)cc23)s1` [I-90, 5-(5-chloropyrazolo[1,5-a]pyridin-3-yl)-N-((1r,3r)-1-(4-(cyclopropanesulfonamido)pyridin-2-yl)-3-hydroxycyclobutyl)thiazole-2-carboxamide], the IC50 is 5 to 25 nM.
For the compound `CCOc1cncc(-c2cnc(C(=O)N[C@@H](c3cc(NS(=O)(=O)C4CC4)ccn3)C(C)(C)OC)s2)n1` [I-91, (S)-N-(1-(4-(cyclopropanesulfonamido)pyridin-2-yl)-2-methoxy-2-methylpropyl)-5-(6-ethoxypyrazin-2-yl)thiazole-2-carboxamide], the IC50 was in the range of 5 to 25 nM.
As for `CCOc1cncc(-c2cnc(C(=O)N[C@H](c3cc(NS(=O)(=O)C4CC4)ccn3)C(C)(C)OC)s2)n1` [I-92, (R)-N-(1-(4-(cyclopropanesulfonamido)pyridin-2-yl)-2-methoxy-2-methylpropyl)-5-(6-ethoxypyrazin-2-yl)thiazole-2-carboxamide], the IC50 is 25 to 50 nM.
As to `CCOc1cncc(-c2cnc(C(=O)N[C@H](c3cc(NS(=O)(=O)C4CC4)ccn3)[C@H]3CCN(C4CCCC4)C3)s2)n1` [I-93, N-((S)-((S)-1-cyclopentylpyrrolidin-3-yl)(4-(cyclopropanesulfonamido)pyridin-2-yl)methyl)-5-(6-ethoxypyrazin-2-yl)thiazole-2-carboxamide], the IC50 is 5 to 25 nM.
As for `CCOc1cncc(-c2cnc(C(=O)N[C@H](c3cc(NS(=O)(=O)C4CC4)ccn3)[C@@H]3CCN(C4CCCC4)C3)s2)n1` [I-94, N-((S)-((R)-1-cyclopentylpyrrolidin-3-yl)(4-(cyclopropanesulfonamido)pyridin-2-yl)methyl)-5-(6-ethoxypyrazin-2-yl)thiazole-2-carboxamide], the figure is above 100 nM; as for `CCOc1cncc(-c2cnc(C(=O)N[C@@H](c3cc(NS(=O)(=O)C4CC4)ccn3)[C@@H]3CCN(C4CCCC4)C3)s2)n1` [I-95, N-((R)-((R)-1-cyclopentylpyrrolidin-3-yl)(4-(cyclopropanesulfonamido)pyridin-2-yl)methyl)-5-(6-ethoxypyrazin-2-yl)thiazole-2-carboxamide], 5 to 25 nM; as for `CCOc1cncc(-c2cnc(C(=O)N[C@@H](c3cc(NS(=O)(=O)C4CC4)ccn3)[C@H]3CCN(C4CCCC4)C3)s2)n1` [I-96, N-((R)-((S)-1-cyclopentylpyrrolidin-3-yl)(4-(cyclopropanesulfonamido)pyridin-2-yl)methyl)-5-(6-ethoxypyrazin-2-yl)thiazole-2-carboxamide], 5 to 25 nM.
In the case of `CCOc1cncc(-c2cnc(C(=O)N[C@H](c3cc(NS(=O)(=O)C4CC4)ccn3)[C@H]3CN(C)CCO3)s2)n1` [I-97, N-((R)-(4-(cyclopropanesulfonamido)pyridin-2-yl)((R)-4-methylmorpholin-2-yl)methyl)-5-(6-ethoxypyrazin-2-yl)thiazole-2-carboxamide] it was 25 to 50 nM and 5 to 25 nM.
For `CCOc1cncc(-c2cnc(C(=O)N[C@@H](COC)c3nccc(NS(=O)(=O)C4CC4)n3)s2)n1` [I-98, (R)-N-(1-(4-(cyclopropanesulfonamido)pyrimidin-2-yl)-2-methoxyethyl)-5-(6-ethoxypyrazin-2-yl)thiazole-2-carboxamide], the IC50 was in the range of 25 to 50 nM.
In the case of `CCOc1cncc(-c2cnc(C(=O)N[C@H](c3cc(NS(=O)(=O)C4CC4)ccn3)[C@@H]3CN(C)CCO3)s2)n1` [I-99, N-((R)-(4-(cyclopropanesulfonamido)pyridin-2-yl)((S)-4-methylmorpholin-2-yl)methyl)-5-(6-ethoxypyrazin-2-yl)thiazole-2-carboxamide], the IC50 lay in the range of 5 to 25 nM.
With `CCOc1cncc(-c2cnc(C(=O)N[C@@H](c3cc(NS(=O)(=O)C4CC4)ccn3)[C@H]3CN(C)CCO3)s2)n1` [I-100, N-((S)-(4-(cyclopropanesulfonamido)pyridin-2-yl)((R)-4-methylmorpholin-2-yl)methyl)-5-(6-ethoxypyrazin-2-yl)thiazole-2-carboxamide], the IC50 was 5 to 25 nM.
Consider `CCOc1cncc(-c2cnc(C(=O)N[C@@H](c3cc(NS(=O)(=O)C4CC4)ccn3)[C@@H]3CN(C)CCO3)s2)n1` [I-101, N-((S)-(4-(cyclopropanesulfonamido)pyridin-2-yl)((S)-4-methylmorpholin-2-yl)methyl)-5-(6-ethoxypyrazin-2-yl)thiazole-2-carboxamide], for which the IC50 was in the range of 5 to 25 nM.
In the case of `CCOc1cncc(-c2cnc(C(=O)N[C@@H](C[C@H]3COCCN3C)c3cc(NS(=O)(=O)C4CC4)ccn3)s2)n1` [I-102, N-((S)-1-(4-(cyclopropanesulfonamido)pyridin-2-yl)-2-((S)-4-methylmorpholin-3-yl)ethyl)-5-(6-ethoxypyrazin-2-yl)thiazole-2-carboxamide], the IC50 fell in the range of 50 to 100 nM.
As for `CCOc1cncc(-c2cnc(C(=O)N[C@H](C[C@H]3COCCN3C)c3cc(NS(=O)(=O)C4CC4)ccn3)s2)n1` [I-104, N-((R)-1-(4-(cyclopropanesulfonamido)pyridin-2-yl)-2-((S)-4-methylmorpholin-3-yl)ethyl)-5-(6-ethoxypyrazin-2-yl)thiazole-2-carboxamide], the figure is at most 5 nM; as for `CCOc1cncc(-c2cnc(C(=O)N[C@H](c3cc(NS(=O)(=O)C4CC4)ccn3)[C@H]3CCN(CCF)C3)s2)n1` [I-107, N-((S)-(4-(cyclopropanesulfonamido)pyridin-2-yl)((S)-1-(2-fluoroethyl)pyrrolidin-3-yl)methyl)-5-(6-ethoxypyrazin-2-yl)thiazole-2-carboxamide], 50 to 100 nM; as for `CCOc1cncc(-c2cnc(C(=O)N[C@H](c3cc(NS(=O)(=O)C4CC4)ccn3)[C@@H]3CCN(CCF)C3)s2)n1` [I-108, N-((S)-(4-(cyclopropanesulfonamido)pyridin-2-yl)((R)-1-(2-fluoroethyl)pyrrolidin-3-yl)methyl)-5-(6-ethoxypyrazin-2-yl)thiazole-2-carboxamide], 5 to 25 nM.
In the case of `CCOc1cncc(-c2cnc(C(=O)N[C@@H](c3cc(NS(=O)(=O)C4CC4)ccn3)[C@@H]3CCN(CCF)C3)s2)n1` [I-109, N-((R)-(4-(cyclopropanesulfonamido)pyridin-2-yl)((R)-1-(2-fluoroethyl)pyrrolidin-3-yl)methyl)-5-(6-ethoxypyrazin-2-yl)thiazole-2-carboxamide] it was 5 to 25 nM; in that of `CCOc1cncc(-c2cnc(C(=O)N[C@@H](c3cc(NS(=O)(=O)C4CC4)ccn3)[C@H]3CCN(CCF)C3)s2)n1` [I-110, N-((R)-(4-(cyclopropanesulfonamido)pyridin-2-yl)((S)-1-(2-fluoroethyl)pyrrolidin-3-yl)methyl)-5-(6-ethoxypyrazin-2-yl)thiazole-2-carboxamide], at most 5 nM; in that of `CCOc1cncc(-c2cnc(C(=O)N[C@H](c3cc(NS(=O)(=O)C4CC4)ccn3)[C@H]3CCN(C4CC4)C3)s2)n1` [I-112, N-((S)-(4-(cyclopropanesulfonamido)pyridin-2-yl)((S)-1-cyclopropylpyrrolidin-3-yl)methyl)-5-(6-ethoxypyrazin-2-yl)thiazole-2-carboxamide], 5 to 25 nM.
As for `CCOc1cncc(-c2cnc(C(=O)N[C@H](c3cc(NS(=O)(=O)C4CC4)ccn3)[C@@H]3CCN(C4CC4)C3)s2)n1` [I-113, N-((S)-(4-(cyclopropanesulfonamido)pyridin-2-yl)((R)-1-cyclopropylpyrrolidin-3-yl)methyl)-5-(6-ethoxypyrazin-2-yl)thiazole-2-carboxamide], the figure is 5 to 25 nM; as for `CCOc1cncc(-c2cnc(C(=O)N[C@@H](c3cc(NS(=O)(=O)C4CC4)ccn3)[C@@H]3CCN(C4CC4)C3)s2)n1` [I-114, N-((R)-(4-(cyclopropanesulfonamido)pyridin-2-yl)((R)-1-cyclopropylpyrrolidin-3-yl)methyl)-5-(6-ethoxypyrazin-2-yl)thiazole-2-carboxamide], 5 to 25 nM; as for `CCOc1cncc(-c2cnc(C(=O)N[C@H](c3cc(NS(=O)(=O)C4CC4)ccn3)[C@@H]3CCCN3C)s2)n1` [I-115, N-((S)-(4-(cyclopropanesulfonamido)pyridin-2-yl)((S)-1-methylpyrrolidin-2-yl)methyl)-5-(6-ethoxypyrazin-2-yl)thiazole-2-carboxamide], 50 to 100 nM.
For `CCOc1cncc(-c2cnc(C(=O)N[C@H](c3cc(NS(=O)(=O)C4CC4)ccn3)[C@H]3CCCN3C)s2)n1` [I-116, N-((S)-(4-(cyclopropanesulfonamido)pyridin-2-yl)((R)-1-methylpyrrolidin-2-yl)methyl)-5-(6-ethoxypyrazin-2-yl)thiazole-2-carboxamide], the IC50 lay within 25 to 50 nM.
As for `CCOc1cncc(-c2cnc(C(=O)N[C@@H](c3cc(NS(=O)(=O)C4CC4)ccn3)[C@@H]3CCCN3C)s2)n1` [I-117, N-((R)-(4-(cyclopropanesulfonamido)pyridin-2-yl)((S)-1-methylpyrrolidin-2-yl)methyl)-5-(6-ethoxypyrazin-2-yl)thiazole-2-carboxamide], the 50% inhibitory concentration (IC50) was in the range of 5 to 25 nM.
